Experimental data published in patent US20080200555A1, “USE OF NOREPINEPHRINE REUPTAKE INHIBITORS FOR THE TREATMENT OF TIC DISORDERS” (priority 2001, published 2008).

Test: Case report: atomoxetine treatment of a person with ADHD and tics (Example 1)
Format: in vivo, human
Text: A person presented with ADHD and tics. […] At baseline, the tics included multiple motor and multiple vocal tics, some complex or in bouts. Their vocal tics were especially problematic and disruptive, causing difficulties for the child at school, in social situations, and when the family went out in public (for example, to a restaurant). The clinical global impression-severity score (CGI-S) is a seven-point scale (1=normal, 7=very severely ill) that summarizes a clinician's overall impression about how severe a patient's illness is compared to other patients the clinician has treated. Based on the parent's report, the retrospective CGI-S score for the child's tics at baseline was 5, markedly ill. The YGTSS is the Yale Global Tic Severity Scale and summarizes the number, severity and frequency of a patient's tics. The minimum score on the YGTSS is zero and the maximum is 50. Based on the parent's description the patient's baseline YGTSS was about 30.
After about 2 to 3 weeks of atomoxetine treatment, the patient's parent reported a single head tic and a few eye blinking tics in the previous week, and no vocal tics. The parent also reported that the patient's complex tics or compulsive behaviors (which had involved them playing with some doors with their feet in a somewhat stereotypical manner), had also stopped. […] The CGI-S score for the child's tics based on the interview with their parent was […], minimally ill. Based on the same interview, the YGTSS total score for the child was 8. The clinical global impression-improvement (CGI-I) score is a seven-point scale (1=very much improve, 7=very much worse) that summarizes a clinician's overall impression about how much a patient has improved with treatment as compared to where they were at baseline. The CGI-I score for the patient's tics was 1, very much improved.

[1] = after about 2 to 3 weeks of atomoxetine treatment

CNCC[C@@H](Oc1ccccc1C)c1ccccc1 [atomoxetine, (R)-(−)-N-methyl-3-(2-methylphenoxy)-3-phenylpropylamine]
complex tics or compulsive behaviors (mother's report) [1]: stopped
vocal tics in the previous week (mother's report) [1]: no vocal tics
YGTSS (Yale Global Tic Severity Scale) total score (person with ADHD and tics, after about 2 to 3 weeks of atomoxetine treatment, scale 0 to 50, baseline about 30): 8
clinical global impression-severity score (CGI-S) for the child's tics (person with ADHD and tics, after about 2 to 3 weeks of atomoxetine treatment, seven-point scale (1=normal, 7=very severely ill), baseline 5): 2a
change in tics after starting treatment (person with ADHD and tics, after starting on atomoxetine): dramatic drop
ADHD (person with ADHD and tics, on atomoxetine treatment): improved
clinical global impression-improvement (CGI-I) score for the patient's tics (person with ADHD and tics, seven-point scale (1=very much improve, 7=very much worse), compared to baseline): 1
